The values below come from patent US11693163B2, “Optical filter and imaging device” (AGC Inc., priority 2015, dated 2023).

The structures appear in SMILES notation.

Series [1] is described as follows: Absorption characteristic of NIR dye in dichloromethane. Format: physicochemical. From the text: The obtained NIR dyes were each dissolved in dichloromethane, and an ultraviolet-visible spectrophotometer (manufactured by Hitachi High Technologies Co., Ltd., U-4100 type) was used to measure each spectral transmittance curve, from which a maximum absorption wavelength λmax, a wavelength λ80 at which the transmittance becomes 80% on a shorter wavelength side than the maximum absorption wavelength with the transmittance at the maximum absorption wavelength set to 10%, a difference between the maximum absorption wavelength λmax and the wavelength λ80 (λmax−λ80), a maximum absorption constant εA in light of a wavelength range of 430 to 550 nm, a maximum absorption constant εB in light of a wavelength range of 670 to 730 nm, and a ratio of these (εB/εA) were calculated. Note that the U-4100 type was used for the measurement of spectral transmittance curves in each of the following examples.

Series [2] can be described thus: Solubility of NIR dye to resin solution. To be noted: stirred two hours; for Solubility evaluation, Polyimide resin: 12.5 mass % C3450 in cyclohexanone:NMP=1:1, 50° C.; for Solubility evaluation, Polyester resin: 12.5 mass % OKP850 in cyclohexanone:NMP=1:1, 50° C.; for Solubility evaluation, Polyethersulfone resin: 12.5 mass % PES4800 in cyclohexanone:NMP=1:1, 50° C. In kind it is physicochemical. The protocol: Results are illustrated in Table 8 together with the kinds of the used dyes. Note that the temperature of the resin solution in the solubility test was set to 50° C., the NIR dye was put into the resin solution, the resultant resin solution was stirred for two hours, and the presence/absence of occurrence of the dissolution was observed visually. Evaluation criteria of the solubility are as follows.
A: Solubility of 9 mass % or more
B: Solubility of 7 mass % or more and less than 9 mass %
C: Solubility of 5 mass % or more and less than 7 mass %
D: Solubility of 3 mass % or more and less than 5 mass %
E: Solubility of 1 mass % or more and less than 3 mass %
F: Solubility of less than 1 mass %

On to `CCCOC(=O)Nc1cc2c(cc1C1=C([O-])C(=c3cc4c(cc3NC(=O)OCCC)=[N+](C)C(C)C4(C)C)C1=O)C(C)(C)C(C)N2C` (stereo not drawn) [A1-2], for which, in series [1], the “εA (maximum absorption constant, 430 to 550 nm)” value is on record as 0.017; the “εB (maximum absorption constant, 670 to 730 nm)” value amounted to 1; the εB/εA is 59.0; the “λ80 (wavelength of 80% transmittance, shorter side of λmax, transmittance at λmax set to 10%)” value came out at 633 nm. Moreover, in series [1], the “λmax (maximum absorption wavelength)” value is recorded as 691 nm and the λmax-λ80 is given as 58 nm. Moreover, in series [2], the “Solubility evaluation, Polyimide resin” value is reported as “A (9 mass % or more)”; the “Solubility evaluation, Polyester resin” value is given as “A (9 mass % or more)”; the “Solubility evaluation, Polyethersulfone resin” value is “A (9 mass % or more)”.
Take `CCCCCOC(=O)Nc1cc2c(cc1C1=C([O-])C(=c3cc4c(cc3NC(=O)OCCCCC)=[N+](C)C(C)C4(C)C)C1=O)C(C)(C)C(C)N2C` (stereo not drawn) [A1-3]: in series [1], the “εA (maximum absorption constant, 430 to 550 nm)” value is listed as 0.013; the “εB (maximum absorption constant, 670 to 730 nm)” value came out at 1; the εB/εA was determined as 77.5; the “λ80 (wavelength of 80% transmittance, shorter side of λmax, transmittance at λmax set to 10%)” value is given as 633 nm. Besides, in series [1], the “λmax (maximum absorption wavelength)” value amounted to 691 nm and the λmax-λ80 worked out at 58 nm. Further, in series [2], the “Solubility evaluation, Polyimide resin” value is “A (9 mass % or more)”; the “Solubility evaluation, Polyester resin” value was “A (9 mass % or more)”; the “Solubility evaluation, Polyethersulfone resin” value was “A (9 mass % or more)”.
Consider `CCCCC(CC)C(=O)Nc1cc2c(cc1C1=C([O-])C(=c3cc4c(cc3NC(=O)C(CC)CCCC)=[N+](C(C)C)C(C)C4(C)C)C1=O)C(C)(C)C(C)N2C(C)C` (stereo not drawn) [A3, reference compound], for which, in series [1], the “εA (maximum absorption constant, 430 to 550 nm)” value came out at 0.020; the “εB (maximum absorption constant, 670 to 730 nm)” value stood at 1; the εB/εA amounted to 49.1; the “λ80 (wavelength of 80% transmittance, shorter side of λmax, transmittance at λmax set to 10%)” value is on record as 656 nm. For the same compound, in series [1], the “λmax (maximum absorption wavelength)” value was 706 nm and the λmax-λ80 stood at 50 nm.
`CCCOC(=O)Nc1cc2c(cc1C1=C([O-])C(=c3cc4c(cc3NC(=O)OCCC)=[N+](C(C)C)C(C)C4(C)C)C1=O)C(C)(C)C(C)N2C(C)C` (stereo not drawn) [A1-6]: in series [1], the “εA (maximum absorption constant, 430 to 550 nm)” value amounted to 0.016; the “εB (maximum absorption constant, 670 to 730 nm)” value stood at 1; the εB/εA was 63.9; the “λ80 (wavelength of 80% transmittance, shorter side of λmax, transmittance at λmax set to 10%)” value is 647 nm. Moreover, in series [1], the “λmax (maximum absorption wavelength)” value was 697 nm and the λmax-λ80 amounted to 50 nm. Moreover, in series [2], the “Solubility evaluation, Polyimide resin” value is “A (9 mass % or more)”; the “Solubility evaluation, Polyester resin” value is “A (9 mass % or more)”; the “Solubility evaluation, Polyethersulfone resin” value was “A (9 mass % or more)”.
As for `CCCCCOC(=O)Nc1cc2c(cc1C1=C([O-])C(=c3cc4c(cc3NC(=O)OCCCCC)=[N+](C(C)C)C(C)C4(C)C)C1=O)C(C)(C)C(C)N2C(C)C` (stereo not drawn) [A1-7], in series [1], the “εA (maximum absorption constant, 430 to 550 nm)” value came to 0.016; the “εB (maximum absorption constant, 670 to 730 nm)” value was 1; the εB/εA is reported as 61.8; the “λ80 (wavelength of 80% transmittance, shorter side of λmax, transmittance at λmax set to 10%)” value was found to be 647 nm. In series [1], the “λmax (maximum absorption wavelength)” value turned out to be 697 nm and the λmax-λ80 was 50 nm. In series [2], the “Solubility evaluation, Polyimide resin” value is “A (9 mass % or more)”; the “Solubility evaluation, Polyester resin” value is on record as “A (9 mass % or more)”; the “Solubility evaluation, Polyethersulfone resin” value was “A (9 mass % or more)”.
Take `CCCOC(=O)Nc1cc2c(cc1C1=C([O-])C(=c3cc4c(cc3NC(=O)OCCC)=[N+](C(C)(C)CC)C(C)C4(C)C)C1=O)C(C)(C)C(C)N2C(C)(C)CC` (stereo not drawn) [A1-10]: in series [1], the “εA (maximum absorption constant, 430 to 550 nm)” value was 0.018; the “εB (maximum absorption constant, 670 to 730 nm)” value was found to be 1; the εB/εA came out at 55.5; the “λ80 (wavelength of 80% transmittance, shorter side of λmax, transmittance at λmax set to 10%)” value was found to be 658 nm. Besides, in series [1], the “λmax (maximum absorption wavelength)” value is 705 nm and the λmax-λ80 is recorded as 47 nm. Moreover, in series [2], the “Solubility evaluation, Polyimide resin” value was “A (9 mass % or more)”; the “Solubility evaluation, Polyester resin” value was “A (9 mass % or more)”; the “Solubility evaluation, Polyethersulfone resin” value was “A (9 mass % or more)”.
In the case of `CCCc1ccc(OC(=O)Nc2cc3c(cc2C2=C([O-])C(=c4cc5c(cc4NC(=O)Oc4ccc(CCC)cc4)=[N+](C(C)C)C(C)C5(C)C)C2=O)C(C)(C)C(C)N3C(C)C)cc1` (stereo not drawn) [A1-9], in series [1], the “εA (maximum absorption constant, 430 to 550 nm)” value stood at 0.013; the “εB (maximum absorption constant, 670 to 730 nm)” value turned out to be 1; the εB/εA came out at 75.7; the “λ80 (wavelength of 80% transmittance, shorter side of λmax, transmittance at λmax set to 10%)” value was 651 nm. For the same compound, in series [1], the “λmax (maximum absorption wavelength)” value is given as 700 nm and the λmax-λ80 was found to be 49 nm. In addition, in series [2], the “Solubility evaluation, Polyimide resin” value was “E (1 mass % or more and less than 3 mass %)”; the “Solubility evaluation, Polyester resin” value is “E (1 mass % or more and less than 3 mass %)”; the “Solubility evaluation, Polyethersulfone resin” value is “E (1 mass % or more and less than 3 mass %)”.
`CCCc1ccc(OC(=O)Nc2cc3c(cc2C2=C([O-])C(=c4cc5c(cc4NC(=O)Oc4ccc(CCC)cc4)=[N+](C)C(C)C5(C)C)C2=O)C(C)(C)C(C)N3C)cc1` (stereo not drawn) [A1-5]: in series [1], the “εA (maximum absorption constant, 430 to 550 nm)” value worked out at 0.016; the “εB (maximum absorption constant, 670 to 730 nm)” value is on record as 1; the εB/εA amounted to 63.9; the “λ80 (wavelength of 80% transmittance, shorter side of λmax, transmittance at λmax set to 10%)” value came out at 636 nm. For the same compound, in series [1], the “λmax (maximum absorption wavelength)” value was 693 nm and the λmax-λ80 is 57 nm. Also, in series [2], the “Solubility evaluation, Polyimide resin” value is recorded as “F (Less than 1 mass %)”; the “Solubility evaluation, Polyester resin” value is “F (Less than 1 mass %)”; the “Solubility evaluation, Polyethersulfone resin” value was “F (Less than 1 mass %)”.
For `COC(=O)Nc1cc2c(cc1C1=C([O-])C(=c3cc4c(cc3NC(=O)OC)=[N+](C)C(C)C4(C)C)C1=O)C(C)(C)C(C)N2C` (stereo not drawn) [A1-1], in series [1], the “εA (maximum absorption constant, 430 to 550 nm)” value is recorded as 0.014; the “εB (maximum absorption constant, 670 to 730 nm)” value turned out to be 1; the εB/εA is reported as 71.1; the “λ80 (wavelength of 80% transmittance, shorter side of λmax, transmittance at λmax set to 10%)” value is recorded as 632 nm. For the same compound, in series [1], the “λmax (maximum absorption wavelength)” value came out at 691 nm and the λmax-λ80 came to 59 nm. Further, in series [2], the “Solubility evaluation, Polyimide resin” value is “E (1 mass % or more and less than 3 mass %)”; the “Solubility evaluation, Polyester resin” value is “D (3 mass % or more and less than 5 mass %)”; the “Solubility evaluation, Polyethersulfone resin” value is “E (1 mass % or more and less than 3 mass %)”.
Consider `CCCCCOC(=O)Nc1cc2c(cc1C1=C([O-])C(=c3cc4c(cc3NC(=O)OCCCCC)=[N+](C(C)(CC)CC)C(C)C4(C)C)C1=O)C(C)(C)C(C)N2C(C)(CC)CC` (stereo not drawn) [A1-13], for which, in series [1], the “εA (maximum absorption constant, 430 to 550 nm)” value is 0.019; the “εB (maximum absorption constant, 670 to 730 nm)” value worked out at 1; the εB/εA came to 51.8; the “λ80 (wavelength of 80% transmittance, shorter side of λmax, transmittance at λmax set to 10%)” value is listed as 659 nm. Also, in series [1], the “λmax (maximum absorption wavelength)” value was found to be 707 nm and the λmax-λ80 was 48 nm. In series [2], the “Solubility evaluation, Polyimide resin” value was “A (9 mass % or more)”; the “Solubility evaluation, Polyester resin” value is “A (9 mass % or more)”; the “Solubility evaluation, Polyethersulfone resin” value was “A (9 mass % or more)”.
As for `CCCCCCCOc1ccc(C(=O)Nc2cc3c(cc2C2=C([O-])C(=c4cc5c(cc4NC(=O)c4ccc(OCCCCCCC)cc4)=[N+](C(C)C)C(C)C5(C)C)C2=O)C(C)(C)C(C)N3C(C)C)cc1` (stereo not drawn) [A4, reference compound], in series [1], the “εA (maximum absorption constant, 430 to 550 nm)” value is on record as 0.029; the “εB (maximum absorption constant, 670 to 730 nm)” value is on record as 1; the εB/εA is listed as 34.7; the “λ80 (wavelength of 80% transmittance, shorter side of λmax, transmittance at λmax set to 10%)” value was 659 nm. Besides, in series [1], the “λmax (maximum absorption wavelength)” value is reported as 710 nm and the λmax-λ80 is 51 nm.
With `CCCOC(=O)Nc1cc2c(cc1C1=C([O-])C(=c3cc4c(cc3NC(=O)OCCC)=[N+](C(C)(CC)CC)C(C)C4(C)C)C1=O)C(C)(C)C(C)N2C(C)(CC)CC` (stereo not drawn) [A1-12], in series [1], the “εA (maximum absorption constant, 430 to 550 nm)” value is 0.017; the “εB (maximum absorption constant, 670 to 730 nm)” value is reported as 1; the εB/εA is listed as 59.7; the “λ80 (wavelength of 80% transmittance, shorter side of λmax, transmittance at λmax set to 10%)” value is given as 656 nm. Also, in series [1], the “λmax (maximum absorption wavelength)” value is listed as 707 nm and the λmax-λ80 worked out at 51 nm. In series [2], the “Solubility evaluation, Polyimide resin” value is “A (9 mass % or more)”; the “Solubility evaluation, Polyester resin” value is “A (9 mass % or more)”; the “Solubility evaluation, Polyethersulfone resin” value is recorded as “A (9 mass % or more)”.
With `CC(C)OC(=O)Nc1cc2c(cc1C1=C([O-])C(=c3cc4c(cc3NC(=O)OC(C)C)=[N+](C(C)C)C(C)C4(C)C)C1=O)C(C)(C)C(C)N2C(C)C` (stereo not drawn) [A1-8], in series [1], the “εA (maximum absorption constant, 430 to 550 nm)” value turned out to be 0.017; the “εB (maximum absorption constant, 670 to 730 nm)” value is 1; the εB/εA came to 60.2; the “λ80 (wavelength of 80% transmittance, shorter side of λmax, transmittance at λmax set to 10%)” value is 647 nm. In series [1], the “λmax (maximum absorption wavelength)” value is recorded as 697 nm and the λmax-λ80 was determined as 50 nm. In series [2], the “Solubility evaluation, Polyimide resin” value was “A (9 mass % or more)”; the “Solubility evaluation, Polyester resin” value is reported as “A (9 mass % or more)”; the “Solubility evaluation, Polyethersulfone resin” value was “A (9 mass % or more)”.
